Measurements: US20050038113A1, “Valproic acid and derivatives for the combinatorial therapeutic treatment of human cancers and for the treatment of tumor metastasis and minimal residual disease” (G2M Cancer Drugs AG, priority 2001, published 2005)

Key:
PPARδ = conditions: cited from earlier work
F9 cells = conditions: cited from earlier work
[1] = system: primary AML blasts from AML patients; assay: ex vivo differentiation, viability and apoptosis of leukemic blasts; type: cell-based, human
Procedure: Each point represents the mean of a set of data determined in triplicate (Example 15). VPA may cause synergistic therapeutic responses.
Cases were classified according to the French-American-British (FAB) classification (Bennett et al., Ann Intern Med 103, 1985). Cytogenetic analysis and RT-PCR tests were performed to rule out the presence of the APL associated fusion genes according to standard methods as described (Mandelli et al., Blood 90, 1997; Mancini et al., Br J Haematol. 91, 1995; Grimwade et al., Blood 90, 1999).

[2] = system: HCT-116 colon cancer cells; assay: cell counts and propidium iodide cell cycle/apoptosis analysis; type: cell-based, human
Procedure: For FIG. 14 cells were seeded in 6 well culture dishes at 100000 cells/well. The day after, they were treated with the indicated drugs (5-FU: 2 μM 5-Fluoruracile; AD: 20 ng/ml adriamycin; IT: 3 μM irinothecan), and then cultured for further 48 hours. Cells were counted at 24 h and 48 h after treatment. All of the assays have been performed in triplicate.
For FIG. 15 cells were seeded in 6 well culture dishes at 100000 cells/well. […] (A), results of triplicate counts of viable cells. (B), cells were stained with propidium iodide after permeabilization and fixation. Results of a cell cycle analysis are presented as percentage (%) of cells in G1, S, G2+M, and sub-G1 (apoptotic cells): all of the assays have been performed in triplicate.
(A), results of triplicate counts of viable cells. (B), cells were stained with propidium iodide after permeabilization and fixation. Results of a cell cycle analysis are presented as percentage (%) of apoptotic cells: all of the assays have been performed in triplicate.
For FIG. 17 cells were seeded in 10 cm culture dishes (1 million cells/dish). […] The day after, they were treated with the following drugs: 5-FU (panel A), AD (B), or IT (C), at the concentrations as indicated for FIG. 14. Cells were analyzed at the day of treatment, 24 h, and 48 h following treatment. Upper panels, results of triplicate counts of viable cells. Lower panels, cells were stained with propidium iodide after permeabilization and fixation. Results of a cell cycle analysis are presented as percentage (%) of apoptotic cells: all of the assays have been performed in triplicate.

[3] = system: PC-3 prostate cancer cells; assay: SRB-assay, reduction in total cellular biomass; type: cell-based, human; conditions: 0.75 mM racemic 4-yn VPA in combination with Camptothecin, 48 hours
Procedure: The reduction in cellular biomass was measured by SRB-assay. For this assay cells were seeded in 96 well culture dishes at densities between 3000 and 8000 cells per well. […] Cultures were fixed with cold TCA producing a final TCA concentration of 10%. After 1 hour of incubation at 4° C. the cells were washed five times with water and air dried. Fixed cells were stained for 30 minutes with 0,4% (wt/vol) Sulforhodamine B (SRB) dissolved in 1% acetic acid and washed four times with 1% acetic acid to remove unbound dye. After air drying bound dye was solubilized with 10 mM unbuffered Tris base (pH 10,5) for 5 minutes. Optical densities were read on a Titertek Multiskan Plus spectrophotometric plate reader at 550 nm. Six test wells for each dose-response were set in parallel with 12 growth control wells per cell line. A measure of the cell population density at time 0 (To; the time at which the drug was added) was also made from 12 extra reference wells of cells fixed with TCA just prior to drug addition to the test plates. Background OD of complete medium with 5% FBS fixed and stained as described above was also determined in 12 separate wells. […]
(§1) The effect on the reduction in total cellular biomass was measured by SRB-assay (see example 1 for assay and read-out procedure details).

[4] = system: DU-145 prostate cancer cells; assay: SRB-assay, reduction in total cellular biomass; type: cell-based, human; conditions: 48 hours
Procedure: (§2) The reduction in cellular biomass was measured by SRB-assay. For this assay cells were seeded in 96 well culture dishes at densities between 3000 and 8000 cells per well. […] Cultures were fixed with cold TCA producing a final TCA concentration of 10%. After 1 hour of incubation at 4° C. the cells were washed five times with water and air dried. Fixed cells were stained for 30 minutes with 0,4% (wt/vol) Sulforhodamine B (SRB) dissolved in 1% acetic acid and washed four times with 1% acetic acid to remove unbound dye. After air drying bound dye was solubilized with 10 mM unbuffered Tris base (pH 10,5) for 5 minutes. Optical densities were read on a Titertek Multiskan Plus spectrophotometric plate reader at 550 nm. Six test wells for each dose-response were set in parallel with 12 growth control wells per cell line. A measure of the cell population density at time 0 (To; the time at which the drug was added) was also made from 12 extra reference wells of cells fixed with TCA just prior to drug addition to the test plates. Background OD of complete medium with 5% FBS fixed and stained as described above was also determined in 12 separate wells. From the unprocessed OD data from each microtiter plate the background OD measurements (i.e. OD of complete medium plus stain and OD of cells at T0) were subtracted thus giving the reduction of cellular biomass of the cells.
as §1
Results using MCF-7 estrogen-dependent breast cancer cells are presented in FIG. 18 and using DU-145 prostate cancer cells in FIG. 19. […] The effect on cell growth was measured by SRB-assay as described in example 1.

PML-RAR leukemia = conditions: PML-RAR patient with multiple relapses after retinoic acid and chemotherapy; cited from earlier work
[5] = system: HCT-15 colon cancer cells; assay: SRB-assay, reduction in total cellular biomass; type: cell-based, human; conditions: 5-FU alone at doses lower than 0.5 μM, 48 hours
Procedure: as §2
This was in particular obvious when lower concentrations of 5-FU were used. E.g. […] Thus, this combinatorial activity of these two drugs must be explained via a synergistic activity of this treatment.

[6] = drug alone at the concentrations used (5-FU 2 μM; AD 20 ng/ml; IT 3 μM)

CC(/C=C/C(=O)NO)=C\[C@@H](C)C(=O)c1ccc(N(C)C)cc1 [TSA]
PPARδ activation (PPARδ): activates PPARδ | F9 cell differentiation (F9 cells): induces the same type of F9 cell differentiation as VPA | synergistic activities in combination (FIGS. 21 and 25) ([1]; TSA +/- RA, compared to the extent VPA does): does not display this synergistic activities | apoptosis of AML blasts (FACS, propidium-iodide) ([1]; single agent, 4 cases tested): not TSA, was found effective in inducing apoptosis

CCc1c2c(nc3ccc(OC(=O)N4CCC(N5CCCCC5)CC4)cc13)-c1cc3c(c(=O)n1C2)COC(=O)[C@]3(O)CC [irinothecan]
apoptosis [2, 6]: did not induce apoptosis significantly | growth rate [2, 6]: only moderately affected the growth rate

C#CCC(CCC)C(=O)O (racemic) [4-yn VPA, 2-n-Propyl-4-pentynoic acid]
reduction in cellular biomass [3]: at least additive therapeutic effect | reduction of cellular biomass ([4]; 0.75 mM racemic 4-yn VPA in combination with cis Platinum lower than 10 μM): synergistic reduction of cellular biomass

phenylbutyrate
clinical response (PML-RAR leukemia): complete remission of the leukemia

O=c1[nH]cc(F)c(=O)[nH]1 [5-FU, 5-Fluorouracil]
apoptosis [2, 6]: did not induce apoptosis significantly | growth rate [2, 6]: only moderately affected the growth rate | apoptosis ([2]; high concentrations of 5-FU alone (not shown)): efficiently induce apoptosis | apoptosis ([2]; lower doses of 5-FU alone): only a modest effect | cell number ([2]; lower doses of 5-FU alone, due to reduction in cycling cells): reduction in cell number | cellular biomass [5]: increase of the cellular biomass

N.N.[Cl][Pt][Cl] [cisPlatinum]
cellular biomass ([4]; cisPlatinum alone at concentrations lower than 10 μM): no decrease of the cellular biomass | cellular biomass ([4]; cisPlatinum alone at doses lower than 1 μM): no decrease of the cellular biomass

COc1cccc2c1C(=O)c1c(O)c3c(c(O)c1C2=O)C[C@@](O)(C(=O)CO)C[C@@H]3O[C@H]1C[C@H](N)[C@H](O)[C@H](C)O1 [adriamicine]
apoptosis [2, 6]: did not induce apoptosis significantly | growth rate [2, 6]: only moderately affected the growth rate
